The source of these data is publication PMC7700248, “Chemical and Biological Study of Novel Aplysiatoxin Derivatives from the Marine Cyanobacterium Lyngbya sp” (Toxins, 2020).

One experiment relates to Artemia salina. Put plainly: Brine shrimp toxicity (lethality) assay. It is filed as in vivo. As to conditions: 24 h; for survival at 0.1 µM / survival at 1 µM / survival at 10 µM / survival at 30 µM: Artemia salina, read-out: Percentage of Survival of Artemia salina after 24 h. The procedure: The lethality assay of brine shrimp A. salina was developed by Vanhaecke et al.. […] Commercially available A. salina or brine shrimp cysts were purchased and cultivated in 3.2% of saline water. Before cultivation, the saline was aerated, and then cysts were kept at room temperature for 24 h. For toxicity screening, hatched larvae were collected and introduced in saline water. Add 0.9% saline water and approximately the same number of larvae 30 per well to make a 96-wells test culture plate. ATXs with 0.1 μM, 1 μM, 10 μM, 30 μM were added to the test culture plate, while the equal volume of dimethyl sulfoxide (DMSO) (Aladdin, Shanghai, China) and dichloromethane (Aladdin, Shanghai, China) were added as blank control test and positive control separately. After 24 h at 25 °C, the percent of survival of A. salina was calculated (Supplementary Materials 1.3.2).
Figure S1.3.1.2. […]
Figure S1.3.1.3. […]
1.3.2. Brine Shrimp Cytotoxicity Assay
Commercially available Artemia salina (A. salina) or brine shrimp cysts were purchased and cultivated in 3.2% of saline water. Before cultivation, the saline was aerated, and then cysts were kept at room temperature for 24 h. For toxicity screenin g, hatched larvae were collected and introduced in saline water. Add saline water and equivalent larvae in per well of 96 wells to make test culture plate.
Aplysiatoxins with 0.1 μM, 1 μM, 10 μM, 30 μM was added to test culture plate, while DMSO and dichloromethane were added as blank control test and positive control separately. After 24 h in 25 °C, the percent of survival of A. salina was calculated. […]

Experiment [1] addresses T1, potassium channel Kv1.5 (Homo sapiens, UniProt P22460).
T1 construct: expressed in transfected cells; host or cells: Chinese hamster ovary (CHO) cells
The experiment is described as follows: Kv1.5 ion channel inhibitory experiment (whole-cell patch clamp, CHO cells). Type of experiment: cell-based. As to the method:
Cell preparation: the day before the experiment, digestion of Chinese hamster ovary (CHO) cells (Sigma Chemical Co., St. Louis, MO, USA) with a density of 60–80% by trypsin, and split into some small glass plates, which placed in 35 mm petri dish, then added 10% fetal bovine serum (FBS) (Gibco, CA, USA), and Dulbecco’s modified eagle medium (DMEM) (HyClone, Logan, UT, USA) culture medium without P/S was cultured overnight in an incubator [35, 36, 37] (Supplementary Materials 1.3.1).
Electrophysiology: the cells were transferred to a perfusion tank and perfused with extracellular fluid. The intracellular fluid (mM) was: K Aspartate, 130; MgCl2, 5; EGTA 5; HEPES, 10; Tris-ATP 4; pH 7.2 (KOH titration). The intracellular fluid was stored in small portions in a refrigerator at −80 °C and thawed on the day of the experiment. The electrodes were filled with intracellular fluid and drawn with PC-10 (Narishige, Japan). Whole-cell patch-clamp recording, noise is filtered using one-fifth of the sampling frequency. The cells were clamped at −80 mV and then depolarized to 20 mV with a square wave lasting 2 s to obtain Kv1.5 current. This procedure is repeated every 20 s. After it was stabilized, compound 1, compound 2, and acacetin were perfused, and when the reaction was stabilized, the strength of the blocking was calculated (Supplementary Materials 1.3.1). […]
detection at 190 nm) to afford twenty‐one subfractions (F.D.1‐21). […]
Electrophysiology. […] After it was stabilized, compound 1, compound 2, and acacetin were perfused, and when the reaction was stabilized, the strength of the blocking was calculated.
Data analysis and statistics. […] The IC50 value was determined by fitting the data points to the equation. […]
Figure S1.3.1.1. (A) Kv1.5 traces elicited by 5 s pulses from −80 to + 20 mV and tail currents recorded at −80 mV in the absence and presence of 0.1 μM, 0.3 μM, 1 μM, 3 μM, 10 μM, and 30 μM neo‐ […]
Background: Patch clamp records ionic current or voltage across a cell membrane.

In experiment [2] the target is T1, potassium channel Kv1.5. As to conditions: read-out: IC50, inhibitory activity against Kv1.5, cited from earlier work.
A further experiment has as its system protein kinase C (PKC). As to conditions: ref [20],[21],[34]; cited from earlier work.

Read-outs that look alike come from different tables or passages of the source.

T1 sequence (P22460 whole entry): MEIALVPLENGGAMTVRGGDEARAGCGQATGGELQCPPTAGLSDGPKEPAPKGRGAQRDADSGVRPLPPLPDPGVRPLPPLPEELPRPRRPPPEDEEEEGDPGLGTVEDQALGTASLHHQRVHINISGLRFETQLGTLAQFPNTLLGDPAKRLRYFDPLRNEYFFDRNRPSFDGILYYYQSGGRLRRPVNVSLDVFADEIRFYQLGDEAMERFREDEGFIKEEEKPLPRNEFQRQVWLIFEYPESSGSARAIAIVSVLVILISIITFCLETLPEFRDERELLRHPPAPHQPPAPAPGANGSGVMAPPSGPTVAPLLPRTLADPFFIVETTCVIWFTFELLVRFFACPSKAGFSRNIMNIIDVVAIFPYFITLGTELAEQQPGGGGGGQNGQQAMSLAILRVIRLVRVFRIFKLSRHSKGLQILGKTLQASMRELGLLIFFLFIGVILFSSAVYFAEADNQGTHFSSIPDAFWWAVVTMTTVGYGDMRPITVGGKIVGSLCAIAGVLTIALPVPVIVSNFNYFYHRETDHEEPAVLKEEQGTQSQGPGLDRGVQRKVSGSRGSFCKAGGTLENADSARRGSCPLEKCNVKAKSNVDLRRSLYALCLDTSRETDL

Regarding `COC(CCC(C)C1OC23CC(OC(=O)CC(C(C)O)OC(=O)CC(OC)(O2)C(C)CC3(C)C)C1C)c1cccc(O)c1` (centres unmarked) [3-OCH3 DAT, 3-methoxydebromoaplysaitoxin], in the experiment with Artemia salina, the “concentration at which survival of A. salina began to be influenced” value (shortened to “concentration at which survival”) was 10 µM, the survival at 0.1 µM turned out to be 94.5 ± 1.87%, the survival at 1 µM was determined as 85.8 ± 6.3% and the survival at 10 µM is 0%. The survival at 30 µM with Artemia salina is 0%.

On to `COC(CCC(C)C1OC23CC(OC(=O)CC(C(C)O)OC(=O)CC(=C(C)CC2(C)C)O3)C1C)c1cccc(O)c1` (centres unmarked) [Anhydro DAT, anhydrodebromoaplysiatoxin], for which, in the experiment with Artemia salina, the “concentration at which survival” value was found to be 10 µM, the survival at 0.1 µM amounted to 94 ± 3.46%, the survival at 1 µM amounted to 91.3 ± 6.94% and the survival at 10 µM is 0%. Further, the survival at 30 µM in the experiment on Artemia salina came to 0%.

A word on the IC50: it is the concentration needed to halve the response being measured. `COC(CCC(C)C1OC23CC(OC(=O)CC(C(C)O)OC(=O)CC4(CC2(C)CC4(C)O)O3)C1C)c1cccc(O)c1` (centres unmarked) [Compound 1, neo-debromoaplysiatoxin G]: the “effect on survival of A. salina (in words)” value (“effect on survival” for short) with Artemia salina (30 µM) is “no apparent effect”. In the experiment on Artemia salina, the survival at 0.1 µM was determined as 98 ± 3.4%, the survival at 1 µM was 92.6 ± 1.54%, the survival at 10 µM came out at 92.4 ± 4.71% and the survival at 30 µM is 91.8 ± 7.73%. The same molecule came in with an IC50 against potassium channel Kv1.5 [1] of 1.79 ± 0.22 µM.

As for `COC(CCC(C)C1OC2(C=CC1C)OC(C)(C(=O)CC(=O)OC1CC(=O)OC1C)CC2(C)C)c1cccc(O)c1` (centres unmarked) [Compound 2, neo-debromoaplysiatoxin H], the “effect on survival” value with Artemia salina (30 µM) is “no apparent effect”. In addition, in the experiment with Artemia salina, the survival at 0.1 µM came out at 97.3 ± 2.38%, the survival at 1 µM was 98.9 ± 1.93%, the survival at 10 µM is 97.3 ± 4.62% and the survival at 30 µM was determined as 95.5 ± 1.93%. Moreover, the IC50 against potassium channel Kv1.5 [1] was determined as 1.46 ± 0.14 µM.

On to `CO[C@@H](CC[C@H](C)[C@H]1O[C@@]23C[C@H](OC(=O)C[C@H]([C@@H](C)O)OC(=O)C[C@](O)(O2)[C@H](C)CC3(C)C)[C@@H]1C)c1cccc(O)c1` [DAT, debromoaplysiatoxin], for which the “concentration at which survival” value in the experiment on Artemia salina worked out at 0.1 µM. Besides, the survival at 0.1 µM in the experiment on Artemia salina (0.1 µM) amounted to 70.9 ± 6.3%. The survival at 1 µM in the experiment with Artemia salina (1 µM) came out at 0%. The survival at 10 µM in the experiment on Artemia salina (10 µM) was determined as 0%. The survival at 30 µM in the experiment with Artemia salina (30 µM) is 0%. Besides, the IC50 at potassium channel Kv1.5 [2] (ref [33]) was 1.28 ± 0.08 µM. The “PKC activation (in words)” value in the experiment with protein kinase C (PKC) is reported as “strong PKC activation”.

In the case of `CO[C@@H](CC[C@H](C)[C@H]1O[C@@]23C[C@H](OC(=O)C2=C(O)[C@H](C)CC3(C)C)[C@@H]1C)c1cccc(O)c1` [NEO-B, neo-debromoaplysiatoxin B], the IC50 on potassium channel Kv1.5 [2] (ref [20],[21],[33]) was 0.3 ± 0.05 µM.

With `COC(CCC(C)C1OC(=O)C(C)(C)CC(C)=C(CC(=O)OC2CC(=O)OC2C)C(=O)CC1C)c1cccc(O)c1` (centres unmarked) [NEO-C, neo-debromoaplysiatoxin C], in the experiment with Artemia salina, the survival at 0.1 µM came to 98.7 ± 2.31%, the survival at 1 µM is 99 ± 1.65%, the survival at 10 µM came to 98.9 ± 1.92% and the survival at 30 µM amounted to 94.9 ± 5.27%.

Turning to `COC(CCC(C)C1OC2(C=CC1C)CC(=O)C(C)CC2(C)C)c1cccc(O)c1` (centres unmarked) [OAT F, osciliatoxin F], in the experiment on Artemia salina (30 µM), the “effect on survival” value is on record as “no apparent effect”. In the experiment on Artemia salina, the survival at 0.1 µM is 97.5 ± 2.2%, the survival at 1 µM was found to be 98.8 ± 1.99%, the survival at 10 µM was 95.3 ± 1.92% and the survival at 30 µM came to 85.5 ± 2.91%.

`COc1ccc(-c2cc(=O)c3c(O)cc(O)cc3o2)cc1` [acacetin]: the 50% inhibitory concentration (IC50) at potassium channel Kv1.5 [1] (Kv1.5 expression in CHO cells, holding potential −80 mV, mean ± SEM of 3 to 5 measurements, Hill fit, read-out: IC50, inhibitory effect on Kv1.5 current) was 5.96 ± 0.56 µM.

oscillatoxin E [OAT E]: the IC50 on potassium channel Kv1.5 [2] (ref [33]) was 0.79 ± 0.03 µM.
